Source: patent US20100168133A1, “USE OF SUBSTITUTED QUINOLINE DERIVATIVES FOR THE TREATMENT OF DRUG RESISTANT MYCOBACTERIAL DISEASES” (priority 2004, published 2010)
Values after ≈ are worked out from the molar mass of the structure shown. Read-outs that look alike come from different tables or passages of the source.

Tests used:
M. avium = type: cell-based; details: M. avium resistant to fluoroquinolones, mutation Ala83Val (Table 9)
M. fortuitum = assay: In-vitro MIC in solid medium against fluoroquinolone-resistant clinical isolates; type: cell-based; details: Mycolicibacterium fortuitum, no mutation indicated, Table 10 1st strain
[1] = system: M. tuberculosis H37Rv strain; type: in vivo, Swiss female mice
[2] = system: M. tuberculosis strain H37Rv; assay: In vivo susceptibility of M. tuberculosis to compound 12 in combination with other antimycobacterial agents, lung CFU (Tables 13, 14); set-up: species or system Swiss mice; details: for CFU 1 month (lung) / CFU 2 months (lung): once-a-day group (gavage 5 days/week from day 14), D0 = 7.23; for CFU 1 month (lung): lung CFU after 1 month of treatment; for CFU 2 months (lung): lung CFU after 2 months of treatment; for Decrease 1 mo vs D0 (lung CFU) / Decrease 2 mo vs D0 (lung CFU) / % positive mice 2nd month: once-a-day group; for Decrease 1 mo vs D0 (lung CFU): 1 month of treatment versus D0 (7.23); for Decrease 2 mo vs D0 (lung CFU): 2 months of treatment versus D0 (7.23); for % positive mice 2nd month: culture-positive mice / mice examined after 2 months; for % positive mice / lung CFU*: once-a-week group, after 2 months of treatment; for lung CFU*: by gavage, D0 value 7.23
[3] = […], treatment from day 14, five times weekly, title: 2 months (footnote: four weeks, sacrifice day 42)

Compound	MIC (M. avium) [mg/L]	MIC (M. fortuitum) [µg/mL]	Mean CFU (log10) per Lung [1, 3] [log10]	Mean CFU (log10) per Spleen [1, 3] [log10]	Spleen weight (mean) [1, 3] [mg]	CFU 1 month (lung) [2]	CFU 2 months (lung) [2]	Decrease 1 mo vs D0 (lung CFU) [2]	Decrease 2 mo vs D0 (lung CFU) [2]	% positive mice 2nd month [2]	% positive mice [2]	lung CFU* [2]	Mean CFU (log10) per Lung ([1]; mouse, in vivo) [log10]	Mean CFU (log10) per Spleen ([1]; mouse, in vivo) [log10]	Spleen weight (mean) ([1]; mouse, in vivo) [mg]
COc1nc2ccc(Br)cc2cc1[C@@H](c1ccccc1)[C@@](O)(CCN(C)C)c1cccc2ccccc12 [Compound 12, (αS,βR)-6-bromo-α-[2-(dimethylamino)ethyl]-2-methoxy-α-1-naphthalenyl-β-phenyl-3-quinolineethanol]	0.007 (≈ 0.0126 µM)	0.01 (≈ 0.018 µM)	0.22 ± 0.32	1.24 ± 0.50	248 ± 47	4.14	2.28	−3.09	−4.95	8/10	9/9	1.99 +/− 0.75	–	–	–
CO[C@H]1/C=C/O[C@@]2(C)Oc3c(C)c(O)c4c(O)c(c(/C=N/N5CCN(C)CC5)c(O)c4c3C2=O)NC(=O)/C(C)=C\C=C\[C@H](C)[C@H](O)[C@@H](C)[C@@H](O)[C@@H](C)[C@H](OC(C)=O)[C@@H]1C [Rifampin, rifampin]	16 (≈ 19.4 µM)	128 (≈ 156 µM)	–	–	–	6.01	4.07	−1.22	−3.16	10/10	–	–	1.89 ± 0.50	2.75 ± 0.34	391 ± 70
CC1COc2c(N3CCN(C)CC3)c(F)cc3c(=O)c(C(=O)O)cn1c23 (stereo not drawn) [Ofloxacin, ofloxacin]	–	1 (≈ 2.77 µM)	–	–	–	–	–	–	–	–	–	–	–	–	–
COc1c(N2C[C@@H]3CCCN[C@@H]3C2)c(F)cc2c(=O)c(C(=O)O)cn(C3CC3)c12 [M, moxifloxacin]	–	–	2.89 ± 0.57	3.53 ± 0.34	400 ± 99	5.51	4.3	−1.72	−2.93	10/10	7/7	6.44 +/− 0.5	–	–	–
